Test results published in publication PMC5882164, “A novel calcimimetic agent, evocalcet (MT-4580/KHK7580), suppresses the parathyroid cell function with little effect on the gastrointestinal tract or CYP isozymes in vivo and in vitro” (PLoS ONE, 2018).
pIC50: −log10 of the molar value. “And” between values parts separate entries of the source, which are not always exact repeats. Equal entries are not always repeated.

Tests used:
serum calcium = test: 5/6 nephrectomized rats study: serum calcium level; type: in vivo, rat; set-up: Serum Ca levels: unit not given here; conditions: 5/6 Nx rats
Method: Rats were 5/6 nephrectomized in two steps. Under anesthesia (pentobarbital, 50 mg/kg; intraperitoneally) and analgesia (lidocaine; topically), two-thirds of the left kidney was removed, and then the right kidney was removed after a seven-day interval. Seven days after the completion of 5/6 nephrectomy, the FR-2 diet was changed to a high-phosphate diet, containing 0.6% calcium and 0.9% phosphate (Oriental Yeast Co., Ltd., Tokyo, Japan). Approximately 2 weeks after the initiation of the high-phosphate diet, the 5/6 Nx rats were divided into five groups (n = 12/group) matched in terms of their body weight as well as their blood urea nitrogen (BUN) and serum PTH and calcium levels.
In the single-dose study, blood samples were collected from the tail vein before and at 0.5, 2, 4, 8, 24, 48, and 72 h after the oral administration of vehicle (0.5% methyl cellulose solution) or evocalcet (0.03, 0.1, 0.3, or 1 mg/kg). In the repeated-dose study, vehicle or evocalcet was orally administered to the respective groups once daily for 14 days. Blood samples were obtained from the tail vein before the first administration and after the seventh and last administrations.
The serum PTH level was measured using a Rat Intact PTH ELISA kit (Immutopics, Inc., San Clemente, CA). The serum calcium, phosphate and BUN levels were measured using an auto analyzer (Hitachi High-Technologies Corporation., Tokyo, Japan) or the following test kits: the Calcium E-test WAKO, the Phospha C-test WAKO, or the Blood Urea nitrogen B-test WAKO (Wako Pure Chemical Industries, Ltd., Osaka, Japan).

CYP1A2 = target: T1, CYP1A2 (Homo sapiens, UniProt P05177); test: CYP inhibition assay in human liver microsomes; type: in vitro ADME; conditions: no pre-incubation, read-out: IC50 direct inhibition of CYP1A2
T1 sequence (P05177 1-516): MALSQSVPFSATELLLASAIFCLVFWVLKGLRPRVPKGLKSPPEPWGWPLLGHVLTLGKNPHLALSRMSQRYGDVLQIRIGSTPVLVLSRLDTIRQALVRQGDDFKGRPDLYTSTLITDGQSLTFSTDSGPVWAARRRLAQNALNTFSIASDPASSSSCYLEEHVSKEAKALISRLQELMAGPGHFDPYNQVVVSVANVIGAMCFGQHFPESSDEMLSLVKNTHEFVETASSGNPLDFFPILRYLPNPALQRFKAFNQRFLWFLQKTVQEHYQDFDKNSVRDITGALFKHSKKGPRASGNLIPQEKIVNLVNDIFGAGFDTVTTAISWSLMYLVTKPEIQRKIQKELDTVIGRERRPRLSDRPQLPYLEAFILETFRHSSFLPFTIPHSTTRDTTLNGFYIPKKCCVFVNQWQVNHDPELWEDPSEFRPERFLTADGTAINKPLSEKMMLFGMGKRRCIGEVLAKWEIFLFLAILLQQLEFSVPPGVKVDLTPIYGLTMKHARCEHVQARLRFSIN
Method: (§1) Each CYP substrate was incubated with human liver microsomes in the absence or presence of evocalcet, and the inhibition of evocalcet for each CYP isozyme was measured.

CYP2C19 = target: T2, CYP2C19 (Homo sapiens, UniProt P33261); test: CYP inhibition assay in human liver microsomes; type: in vitro ADME; conditions: no pre-incubation, read-out: IC50 direct inhibition of CYP2C19
T2 construct: from tissue; host or cells: human liver microsomes
Method: as §1

CYP2C9 = target: T3, CYP2C9 (Homo sapiens, UniProt P11712); test: CYP inhibition assay in human liver microsomes; type: in vitro ADME; conditions: no pre-incubation, read-out: IC50 direct inhibition of CYP2C9
T3 construct: from tissue; host or cells: human liver microsomes
Method: as §1

T2 sequence (P33261 whole entry): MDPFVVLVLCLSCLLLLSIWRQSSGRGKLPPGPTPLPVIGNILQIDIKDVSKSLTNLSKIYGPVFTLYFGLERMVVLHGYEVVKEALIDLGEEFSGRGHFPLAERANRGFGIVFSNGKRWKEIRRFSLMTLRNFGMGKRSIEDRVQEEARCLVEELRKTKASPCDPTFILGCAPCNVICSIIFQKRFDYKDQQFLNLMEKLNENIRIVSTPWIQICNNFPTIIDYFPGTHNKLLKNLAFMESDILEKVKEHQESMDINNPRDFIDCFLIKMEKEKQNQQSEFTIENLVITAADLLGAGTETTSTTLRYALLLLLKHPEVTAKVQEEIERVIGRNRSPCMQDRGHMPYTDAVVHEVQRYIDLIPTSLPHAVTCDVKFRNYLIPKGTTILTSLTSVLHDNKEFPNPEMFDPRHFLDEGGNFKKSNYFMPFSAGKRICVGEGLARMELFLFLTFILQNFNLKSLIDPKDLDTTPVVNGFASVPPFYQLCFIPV
T3 sequence (P11712 whole entry): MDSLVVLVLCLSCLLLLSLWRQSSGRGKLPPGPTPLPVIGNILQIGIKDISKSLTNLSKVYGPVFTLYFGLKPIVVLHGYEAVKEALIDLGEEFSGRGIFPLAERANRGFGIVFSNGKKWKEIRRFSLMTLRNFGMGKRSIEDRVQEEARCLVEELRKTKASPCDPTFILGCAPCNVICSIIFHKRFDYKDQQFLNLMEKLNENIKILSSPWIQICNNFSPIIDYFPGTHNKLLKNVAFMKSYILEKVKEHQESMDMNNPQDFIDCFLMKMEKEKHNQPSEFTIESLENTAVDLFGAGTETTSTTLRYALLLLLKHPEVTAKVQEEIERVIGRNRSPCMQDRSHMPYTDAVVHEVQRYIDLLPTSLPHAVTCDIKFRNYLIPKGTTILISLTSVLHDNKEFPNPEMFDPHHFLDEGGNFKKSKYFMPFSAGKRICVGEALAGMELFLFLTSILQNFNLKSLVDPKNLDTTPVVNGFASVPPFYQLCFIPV

C[C@@H](N[C@H]1CCN(c2ccc(CC(=O)O)cc2)C1)c1cccc2ccccc12 [evocalcet]
Serum Ca levels before (day 0) and 24 h after evocalcet administration, Mean (serum calcium; 0.03 mg/kg, day 0 (Before), group mean): 7.862 | Serum Ca levels before (day 0) and 24 h after evocalcet administration (serum calcium; 0.03 mg/kg, day 0 (Before), individual rats, 0.03 mg/kg): 6.475 and 7.379 and 7.410 and 6.746 and 6.842 and 8.689 and 8.077 and 8.881 and 8.577 and 8.645 and 8.453 and 8.169 | Serum Ca levels before (day 0) and 24 h after evocalcet administration, Mean (serum calcium; 0.03 mg/kg, day 7 (24 h), group mean): 6.700 | Serum Ca levels before (day 0) and 24 h after evocalcet administration (serum calcium; 0.03 mg/kg, day 7 (24 h), individual rats, 0.03 mg/kg): 4.756 and 6.463 and 7.204 and 6.649 and 7.424 and 7.568 and 6.316 and 6.947 and 6.611 and 7.154 and 6.338 and 6.972 | Serum Ca levels before (day 0) and 24 h after evocalcet administration, Mean (serum calcium; 0.03 mg/kg, day 14 (24 h), group mean): 7.524 | Serum Ca levels before (day 0) and 24 h after evocalcet administration (serum calcium; 0.03 mg/kg, day 14 (24 h), individual rats, 0.03 mg/kg): 6.629 and 7.365 and 7.620 and 6.148 and 7.312 and 8.717 and 7.991 and 8.107 and 7.192 and 7.532 and 7.865 and 7.809 | Serum Ca levels after the first administration, Mean (serum calcium; 0.03 mg/kg, time 0 h, group mean): 7.862 | Serum Ca levels after the first administration (serum calcium; 0.03 mg/kg, time 0 h, individual rats): 6.475 and 7.379 and 7.410 and 6.746 and 6.842 and 8.689 | Serum Ca levels after the first administration, Mean (serum calcium; 0.03 mg/kg, time 0.5 h, group mean): 7.066 | Serum Ca levels after the first administration (serum calcium; 0.03 mg/kg, time 0.5 h, individual rats): 5.843 and 6.570 and 6.547 and 6.666 and 6.639 and 7.943 | Serum Ca levels after the first administration, Mean (serum calcium; 0.03 mg/kg, time 2 h, group mean): 7.130 | Serum Ca levels after the first administration (serum calcium; 0.03 mg/kg, time 2 h, individual rats): 6.221 and 6.752 and 6.943 and 6.746 and 6.851 and 7.851 | Serum Ca levels after the first administration, Mean (serum calcium; 0.03 mg/kg, time 4 h, group mean): 7.511 | Serum Ca levels after the first administration (serum calcium; 0.03 mg/kg, time 4 h, individual rats): 6.129 and 7.183 and 6.895 and 7.539 and 6.860 and 8.183 | Serum Ca levels after the first administration, Mean (serum calcium; 0.03 mg/kg, time 8 h, group mean): 7.889 | Serum Ca levels after the first administration (serum calcium; 0.03 mg/kg, time 8 h, individual rats): 7.265 and 7.625 and 7.368 and 8.097 and 7.474 and 8.633 | Serum Ca levels after the first administration, Mean (serum calcium; 0.03 mg/kg, time 24 h, group mean): 7.657 | Serum Ca levels after the first administration (serum calcium; 0.03 mg/kg, time 24 h, individual rats): 7.337 and 7.644 and 7.429 and 7.568 and 7.040 and 8.620 | Serum Ca levels before (day 0) and 24 h after evocalcet administration, Mean (serum calcium; 0.1 mg/kg, day 0 (Before), group mean): 7.709 | Serum Ca levels before (day 0) and 24 h after evocalcet administration (serum calcium; 0.1 mg/kg, day 0 (Before), individual rats, 0.1 mg/kg): 7.331 and 8.275 and 7.642 and 7.659 and 8.173 and 8.364 and 6.513 and 7.933 and 8.070 and 7.690 and 6.674 and 8.180 | Serum Ca levels before (day 0) and 24 h after evocalcet administration, Mean (serum calcium; 0.1 mg/kg, day 7 (24 h), group mean): 7.317 | Serum Ca levels before (day 0) and 24 h after evocalcet administration (serum calcium; 0.1 mg/kg, day 7 (24 h), individual rats, 0.1 mg/kg): 7.427 and 8.099 and 7.493 and 7.242 and 7.637 and 7.025 and 6.448 and 7.138 and 7.123 and 6.680 and 7.302 and 8.184 | Serum Ca levels before (day 0) and 24 h after evocalcet administration, Mean (serum calcium; 0.1 mg/kg, day 14 (24 h), group mean): 7.011 | Serum Ca levels before (day 0) and 24 h after evocalcet administration (serum calcium; 0.1 mg/kg, day 14 (24 h), individual rats, 0.1 mg/kg): 7.048 and 7.642 and 6.969 and 7.601 and 6.617 and 6.853 and 5.928 and 7.145 and 7.117 and 6.576 and 7.375 and 7.261 | Serum Ca levels after the first administration, Mean (serum calcium; 0.1 mg/kg, time 0 h, group mean): 7.709 | Serum Ca levels after the first administration (serum calcium; 0.1 mg/kg, time 0 h, individual rats): 7.331 and 8.275 and 7.642 and 7.659 and 8.173 and 8.364 and 6.513 and 7.933 and 8.070 and 7.690 and 6.674 | Serum Ca levels after the first administration, Mean (serum calcium; 0.1 mg/kg, time 0.5 h, group mean): 6.755 | Serum Ca levels after the first administration (serum calcium; 0.1 mg/kg, time 0.5 h, individual rats): 6.761 and 6.580 and 6.840 and 7.344 and 6.409 and 6.926 and 6.241 and 6.919 and 6.445 and 6.968 and 6.307 | Serum Ca levels after the first administration, Mean (serum calcium; 0.1 mg/kg, time 2 h, group mean): 6.694 | Serum Ca levels after the first administration (serum calcium; 0.1 mg/kg, time 2 h, individual rats): 6.582 and 6.412 and 6.604 and 7.150 and 6.977 and 6.857 and 5.795 and 6.903 and 7.147 and 6.715 and 6.267 | Serum Ca levels after the first administration, Mean (serum calcium; 0.1 mg/kg, time 4 h, group mean): 7.099 | Serum Ca levels after the first administration (serum calcium; 0.1 mg/kg, time 4 h, individual rats): 7.060 and 7.085 and 7.028 and 7.482 and 7.364 and 7.406 and 5.948 and 7.326 and 7.361 and 7.050 and 6.742 | Serum Ca levels after the first administration, Mean (serum calcium; 0.1 mg/kg, time 8 h, group mean): 7.285 | Serum Ca levels after the first administration (serum calcium; 0.1 mg/kg, time 8 h, individual rats): 7.692 and 7.609 and 7.307 and 7.085 and 7.975 and 4.442 and 6.559 and 7.908 and 8.235 and 7.683 | Serum Ca levels after the first administration, Mean (serum calcium; 0.1 mg/kg, time 24 h, group mean): 7.626 | Serum Ca levels after the first administration (serum calcium; 0.1 mg/kg, time 24 h, individual rats): 7.618 and 8.042 and 7.976 and 7.739 and 7.539 and 7.979 and 6.079 and 7.486 and 8.194 and 7.356 | Serum Ca levels (serum calcium; 0.3 mg/kg, day 0 (before), group mean): 7.177 | Serum Ca levels (serum calcium; 0.3 mg/kg, day 0 (before), individual rats, 0.3 mg/kg): 7.714 and 7.098 and 4.207 and 6.520 and 8.019 and 4.857 and 7.006 and 8.419 and 8.245 and 7.878 and 7.711 and 8.450 | Serum Ca levels (serum calcium; 0.3 mg/kg, day 7 (24 h after administration), group mean): 5.744 | Serum Ca levels (serum calcium; 0.3 mg/kg, day 7 (24 h after administration), individual rats, 0.3 mg/kg): 6.617 and 4.991 and 5.484 and 4.834 and 5.302 and 6.718 and 6.297 and 6.366 and 7.085 and 5.154 and 4.887 and 5.195 | Serum Ca levels (serum calcium; 0.3 mg/kg, day 14 (24 h after administration), group mean): 5.948 | Serum Ca levels (serum calcium; 0.3 mg/kg, day 14 (24 h after administration), individual rats, 0.3 mg/kg): 6.601 and 5.324 and 6.337 and 4.673 and 5.104 and 7.592 and 6.733 and 6.057 and 5.865 and 5.887 and 5.547 and 5.661 | Serum Ca levels after the first administration, Mean (serum calcium; 0.3 mg/kg, time 0 h, group mean): 7.177 | Serum Ca levels after the first administration, Mean (serum calcium; 0.3 mg/kg, time 0.5 h, group mean): 6.778 | Serum Ca levels after the first administration, Mean (serum calcium; 0.3 mg/kg, time 2 h, group mean): 6.136 | Serum Ca levels after the first administration, Mean (serum calcium; 0.3 mg/kg, time 4 h, group mean): 6.714 | Serum Ca levels after the first administration, Mean (serum calcium; 0.3 mg/kg, time 8 h, group mean): 7.218 | Serum Ca levels after the first administration, Mean (serum calcium; 0.3 mg/kg, time 24 h, group mean): 7.101 | Serum Ca levels (serum calcium; 1 mg/kg, day 0 (before), group mean): 7.784 | Serum Ca levels (serum calcium; 1 mg/kg, day 0 (before), individual rats, 1 mg/kg): 7.396 and 7.591 and 7.831 and 7.728 and 8.433 and 7.868 and 8.231 and 7.824 and 8.217 and 9.292 and 6.900 and 6.102 | Serum Ca levels (serum calcium; 1 mg/kg, day 7 (24 h after administration), group mean): 5.027 | Serum Ca levels (serum calcium; 1 mg/kg, day 7 (24 h after administration), individual rats, 1 mg/kg): 5.540 and 3.798 and 5.148 and 4.511 and 4.963 and 5.487 and 4.665 and 5.044 and 4.307 and 5.493 and 4.570 and 6.793 | Serum Ca levels (serum calcium; 1 mg/kg, day 14 (24 h after administration), group mean): 4.801 | Serum Ca levels (serum calcium; 1 mg/kg, day 14 (24 h after administration), individual rats, 1 mg/kg): 5.359 and 3.730 and 4.903 and 4.736 and 4.928 and 5.192 and 4.708 and 5.906 and 3.598 and 4.859 and 4.220 and 5.475 | Serum Ca levels after the first administration, Mean (serum calcium; 1 mg/kg, time 0 h, group mean): 7.784 | Serum Ca levels after the first administration, Mean (serum calcium; 1 mg/kg, time 0.5 h, group mean): 6.460 | Serum Ca levels after the first administration, Mean (serum calcium; 1 mg/kg, time 2 h, group mean): 5.290 | Serum Ca levels after the first administration, Mean (serum calcium; 1 mg/kg, time 4 h, group mean): 5.870 | Serum Ca levels after the first administration, Mean (serum calcium; 1 mg/kg, time 8 h, group mean): 6.299 | Serum Ca levels after the first administration, Mean (serum calcium; 1 mg/kg, time 24 h, group mean): 6.253 | Doses that steadily decreased the serum calcium level (serum calcium; once daily oral for 14 days, 24 h after administration on days 7 and 14): ≥ 0.3 mg/kg | Doses that significantly decreased the serum calcium level (serum calcium; single oral dose, vs vehicle group): ≥ 0.1 mg/kg | pIC50 (CYP1A2): < 4.30 | pIC50 (CYP2C19): < 4.30 | pIC50 (CYP2C9): < 4.30
